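Results reflect a 48-hour exposure of cells in 96-well plates to compound at five concentrations. TGI marks complete inhibition of growth.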
Experiments:
Test in all cases: inhibition of tumour cell growth, NCI panel, 48 h
[1] = tested on: CAKI-1 renal
[2] = tested on: SK-MEL-28 melanoma
[3] = tested on: NCI-H23 lung
[4] = tested on: OVCAR-8 ovarian
[5] = tested on: SW-620 colon
[6] = tested on: LOX IMVI melanoma
[7] = tested on: IGROV1 ovarian
[8] = tested on: T-47D breast
[9] = tested on: SNB-75 CNS
[10] = tested on: SN12C renal
[11] = tested on: HL-60(TB) leukemia
[12] = tested on: HOP-62 NSCLC
[13] = tested on: OVCAR-4 ovarian
[14] = tested on: UO-31 renal
[15] = tested on: MDA-MB-231 breast
[16] = tested on: NCI-H522 lung
[17] = tested on: MDA-MB-435
[18] = tested on: K-562 leukemia
[19] = tested on: NCI-H226 lung
[20] = tested on: A549 NSCLC
[21] = tested on: U251 CNS
[22] = tested on: OVCAR-3 ovarian
[23] = tested on: EKVX NSCLC
[24] = tested on: ACHN renal
[25] = tested on: COLO 205 colon
[26] = tested on: PC-3 prostate
[27] = tested on: RXF 393 renal
[28] = tested on: A498 renal
[29] = tested on: SK-MEL-2 melanoma
[30] = tested on: HCT-15 colon
[31] = tested on: SF-268 CNS
[32] = tested on: KM12 colon
[33] = tested on: SF-539 CNS
[34] = tested on: HCT-116 colon
[35] = tested on: SK-MEL-5 melanoma
[36] = tested on: UACC-257 melanoma
[37] = tested on: BT-549 breast
[38] = tested on: 786-0 renal
[39] = tested on: HS 578T breast
[40] = tested on: OVCAR-5 ovarian
[41] = tested on: SR leukemia
[42] = tested on: SF-295 CNS
[43] = tested on: NCI-H460 lung
[44] = tested on: CCRF-CEM leukemia
[45] = tested on: SK-OV-3 ovarian
[46] = tested on: NCI/ADR-RES ovarian
[47] = tested on: MCF7 breast
[48] = tested on: UACC-62 melanoma
[49] = tested on: HOP-92 NSCLC
[50] = tested on: MOLT-4 leukemia
[51] = tested on: MALME-3M melanoma
[52] = tested on: M14 melanoma
[53] = tested on: MDA-N
[54] = tested on: DU-145 prostate
[55] = tested on: TK-10 renal
[56] = tested on: SNB-19 CNS
[57] = tested on: HT29 colon
[58] = tested on: RPMI-8226 leukemia
[59] = tested on: HCC-2998 colon

Measured: TGI

O=c1[nH][nH]c(=S)c(=O)[nH]1
> 100 µM: [1] | [2] | [3] | [4] | [5] | [6] | [7] | [8] | [9] | [10] | [11] | [12] | [13] | [14] | [15] | [16] | [17] | [18] | [19] | [20] | [21] | [22] | [23] | [24] | [25] | [26] | [27] | [28] | [29] | [30] | [31] | [32] | [33] | [34] | [35] | [36] | [37] | [38] | [39] | [40] | [41] | [42] | [43] | [44] | [45] | [46] | [47] | [48] | [49] | [50] | [51] | [52] | [53] | [54] | [55] | [56] | [57] | [58]

O=C(O)C1CCCN1Cc1ccc2c(c1)OCO2 (configuration not stated)
> 100 µM: [1] | [2] | [3] | [4] | [5] | [6] | [7] | [8] | [9] | [10] | [12] | [13] | [14] | [15] | [16] | [17] | [18] | [19] | [20] | [21] | [22] | [23] | [24] | [25] | [26] | [27] | [28] | [29] | [30] | [31] | [32] | [33] | [34] | [35] | [36] | [37] | [38] | [39] | [40] | [41] | [42] | [43] | [45] | [46] | [47] | [48] | [49] | [50] | [51] | [52] | [53] | [54] | [55] | [56] | [57] | [58]

CC(=O)OCC(OC(C)=O)C(OC(C)=O)C(OC(C)=O)C(/C=N\Nc1nc2ccccc2c(=O)[nH]1)OC(C)=O (configuration not stated)
> 100 µM: [1] | [2] | [3] | [4] | [5] | [6] | [8] | [9] | [10] | [11] | [12] | [14] | [15] | [16] | [17] | [18] | [19] | [20] | [21] | [22] | [23] | [24] | [25] | [26] | [27] | [29] | [30] | [31] | [32] | [33] | [34] | [35] | [36] | [37] | [38] | [39] | [40] | [41] | [42] | [43] | [44] | [45] | [46] | [47] | [48] | [49] | [50] | [51] | [52] | [53] | [54] | [56] | [59] | [57] | [58]

Nc1nc(Cl)cc(NCC2(CO)CCC(OCc3ccccc3)C2)n1 (configuration not stated)
61 µM: [52]
> 100 µM: [2] | [4] | [5] | [7] | [12] | [18] | [20] | [21] | [22] | [24] | [27] | [30] | [31] | [33] | [34] | [38] | [40] | [42] | [43] | [44] | [48] | [54] | [56] | [58]
80.1 µM: [37]
45.1 µM: [1] | [36]
86.8 µM: [11]
53.4 µM: [9]
33 µM: [26]
60.5 µM: [55]
34.3 µM: [50]
62.7 µM: [25]
89.1 µM: [47]
52.7 µM: [8]
77.3 µM: [29]
39.9 µM: [17]
43.8 µM: [3]
25 µM: [46]
93 µM: [10]
65.2 µM: [13]
74.6 µM: [53]
97.2 µM: [51]
42.8 µM: [15]
84.1 µM: [19]
62.4 µM: [45]
37 µM: [49]
37.9 µM: [16]
44.4 µM: [28]
99.4 µM: [14]
94.6 µM: [32]
18.8 µM: [35]
46.4 µM: [6]
59.4 µM: [23]
80.2 µM: [41]
34 µM: [57]
43.9 µM: [39]

— PubChem BioAssay (NCI)
